Test results reported in ChEMBL document CHEMBL1158454, “Discovery of a potent and orally active hedgehog pathway antagonist (IPI-926)” (J Med Chem, 2009).

How the values were obtained:
in vitro = settings: human
Description: Metabolic stability in human liver microsomes assessed as half life at 500 nM

[1] = Inhibition of HedgeHog pathway in mouse C3H10T1/2 cells assessed as inhibition of 20-(S)-hydroxysterol/22-(S)-hydroxysterol-induced osteoblastic differentiation after 72 hrs by alkaline phosphatase assay; settings: C3H 10T1/2, 72 h

Row | SMILES | half-life at 0.5 µM (in vitro; microsomes) | EC50 [1] | half-life at 0.5 µM (in vitro; liver microsomes)
1 | CC1=C2C[C@H]3[C@@H](CC[C@@H]4CC(=O)CC[C@@]43C)[C@@H]2CC[C@@]2(C1)O[C@@H]1C[C@H](C)CN[C@H]1[C@H]2C | 70 min | 13 nM | 
2 | CC1=C2C[C@H]3[C@@H](CC[C@@H]4C[C@H](n5ccnn5)CC[C@@]43C)[C@@H]2CC[C@@]2(C1)O[C@@H]1C[C@H](C)CN[C@H]1[C@H]2C |  | 24 nM | 40 min
3 | CC1=C2C[C@H]3[C@@H](CC[C@@H]4Cc5n[nH]c(C(F)(F)F)c5C[C@@]43C)[C@@H]2CC[C@@]2(C1)O[C@@H]1C[C@H](C)CN[C@H]1[C@H]2C |  | 170 nM | 200 min
4 | CC1=C2C[C@H]3[C@@H](CC[C@H]4CC(=O)CC[C@@]43C)[C@@H]2CC[C@@]2(C1)O[C@@H]1C[C@H](C)CN[C@H]1[C@H]2C | 75 min | 400 nM | 
5 | CC1=C2C[C@H]3[C@@H](CC[C@@H]4C[C@H](O)CC[C@@]43C)[C@@H]2CC[C@@]2(C1)O[C@@H]1C[C@H](C)CN[C@H]1[C@H]2C |  | 9 nM | 40 min
6 | CC1=C2C[C@H]3[C@@H](CC[C@@H]4Cc5[nH][nH]c(=O)c5C[C@@]43C)[C@@H]2CC[C@@]2(C1)O[C@@H]1C[C@H](C)CN[C@H]1[C@H]2C |  | 170 nM | 100 min
7 | CC1=C2C[C@H]3[C@@H](CC[C@@H]4C[C@@H](N)CC[C@@]43C)[C@@H]2CC[C@@]2(C1)O[C@@H]1C[C@H](C)CN[C@H]1[C@H]2C |  | > 1000 nM | 
8 | CC(=O)N[C@H]1CC[C@@]2(C)[C@H](CC[C@H]3[C@@H]4CC[C@@]5(CC(C)=C4C[C@@H]32)O[C@@H]2C[C@H](C)CN[C@H]2[C@H]5C)C1 | 60 min | 300 nM | 
9 | CC1=C2C[C@H]3[C@@H](CC[C@@H]4Cc5nn(C)cc5C[C@@]43C)[C@@H]2CC[C@@]2(C1)O[C@@H]1C[C@H](C)CN[C@H]1[C@H]2C |  | 54 nM | 35 min
10 | CC1=C2C[C@H]3[C@@H](CC[C@@H]4Cc5nn(S(=O)(=O)c6ccc(C)cc6)cc5C[C@@]43C)[C@@H]2CC[C@@]2(C1)O[C@@H]1C[C@H](C)CN[C@H]1[C@H]2C |  | 900 nM | 65 min
11 | CO[C@@H]1CC[C@@]2(C)[C@H](CC[C@H]3[C@@H]4CC[C@@]5(CC(C)=C4C[C@@H]32)O[C@@H]2C[C@H](C)CN[C@H]2[C@H]5C)C1 | 20 min | 180 nM | 
12 | CC1=C2C[C@H]3[C@@H](CC[C@@H]4C[C@@H](NS(C)(=O)=O)CC[C@@]43C)[C@@H]2CC[C@@]2(C1)O[C@@H]1C[C@H](C)CN[C@H]1[C@H]2C | 30 min | 90 nM | 
13 | CC1=C2C[C@H]3[C@@H](CC[C@@H]4C[C@@H](n5ccnn5)CC[C@@]43C)[C@@H]2CC[C@@]2(C1)O[C@@H]1C[C@H](C)CN[C@H]1[C@H]2C |  | 130 nM | 70 min
14 | CC(=O)N[C@@H]1CC[C@@]2(C)[C@H](CC[C@H]3[C@@H]4CC[C@@]5(CC(C)=C4C[C@@H]32)O[C@@H]2C[C@H](C)CN[C@H]2[C@H]5C)C1 | 65 min | 17 nM | 
15 | CC1=C2C[C@H]3[C@@H](CC[C@@H]4C[C@H](N)CC[C@@]43C)[C@@H]2CC[C@@]2(C1)O[C@@H]1C[C@H](C)CN[C@H]1[C@H]2C |  | > 1000 nM | 
16 | CC1=C2C[C@H]3[C@@H](CC[C@@H]4Cc5nonc5C[C@@]43C)[C@@H]2CC[C@@]2(C1)O[C@@H]1C[C@H](C)CN[C@H]1[C@H]2C |  | 230 nM | 8 min
17 | CC1=C2C[C@H]3[C@@H](CC[C@@H]4Cc5nc(C)sc5C[C@@]43C)[C@@H]2CC[C@@]2(C1)O[C@@H]1C[C@H](C)CN[C@H]1[C@H]2C |  | 270 nM | 100 min
18 | CC1=C2C[C@H]3[C@@H](CC[C@@H]4C/C(=N/O)CC[C@@]43C)[C@@H]2CC[C@@]2(C1)O[C@@H]1C[C@H](C)CN[C@H]1[C@H]2C | 45 min | 15 nM | 
19 | CC1=C2C[C@H]3[C@@H](CC[C@@H]4c5c[nH]nc5CC[C@@]43C)[C@@H]2CC[C@@]2(C1)O[C@@H]1C[C@H](C)CN[C@H]1[C@H]2C | 27 min | 220 nM | 
20 | CC1=C2C[C@H]3[C@@H](CC[C@@H]4Cc5nocc5C[C@@]43C)[C@@H]2CC[C@@]2(C1)O[C@@H]1C[C@H](C)CN[C@H]1[C@H]2C | 8 min | 62 nM | 
21 | CO[C@H]1CC[C@@]2(C)[C@H](CC[C@H]3[C@@H]4CC[C@@]5(CC(C)=C4C[C@@H]32)O[C@@H]2C[C@H](C)CN[C@H]2[C@H]5C)C1 | > 200 min | 490 nM | 
22 | CC1=C2C[C@H]3[C@@H](CC[C@@H]4C[C@@H](O)CC[C@@]43C)[C@@H]2CC[C@@]2(C1)O[C@@H]1C[C@H](C)CN[C@H]1[C@H]2C |  | 23 nM | 20 min
23 | CC1=C2C[C@H]3[C@@H](CC[C@@H]4CN(C)C(=O)CC[C@@]43C)[C@@H]2CC[C@@]2(C1)O[C@@H]1C[C@H](C)CN[C@H]1[C@H]2C | 46 min | 40 nM | 
24 | CC1=C2C[C@H]3[C@@H](CC[C@@H]4CCCC[C@@]43C)[C@@H]2CC[C@@]2(C1)O[C@@H]1C[C@H](C)CN[C@H]1[C@H]2C |  | 760 nM | 
25 | CO/N=C1\CC[C@@]2(C)[C@H](CC[C@H]3[C@@H]4CC[C@@]5(CC(C)=C4C[C@@H]32)O[C@@H]2C[C@H](C)CN[C@H]2[C@H]5C)C1 |  | 160 nM | 55 min
26 | CC1=C2C[C@H]3[C@@H](CC[C@@H]4Cc5nn(S(C)(=O)=O)cc5C[C@@]43C)[C@@H]2CC[C@@]2(C1)O[C@@H]1C[C@H](C)CN[C@H]1[C@H]2C |  | 140 nM | 180 min
